According to patent publication US7125990B2, “Imidazolyl derivatives as corticotropin releasing factor inhibitors” (Bristol-Myers Squibb COmpany, priority 2001, dated 2006):

Biological target: T1, CRF1 receptors (Homo sapiens, UniProt P34998)
T1 construct: endogenous in cells; host or cells: IMR-32 cells, transformed with 2.5 µM 5'-bromo-2'-deoxyuridine for 10 days; membrane preparation
T1 sequence (P34998 24-415): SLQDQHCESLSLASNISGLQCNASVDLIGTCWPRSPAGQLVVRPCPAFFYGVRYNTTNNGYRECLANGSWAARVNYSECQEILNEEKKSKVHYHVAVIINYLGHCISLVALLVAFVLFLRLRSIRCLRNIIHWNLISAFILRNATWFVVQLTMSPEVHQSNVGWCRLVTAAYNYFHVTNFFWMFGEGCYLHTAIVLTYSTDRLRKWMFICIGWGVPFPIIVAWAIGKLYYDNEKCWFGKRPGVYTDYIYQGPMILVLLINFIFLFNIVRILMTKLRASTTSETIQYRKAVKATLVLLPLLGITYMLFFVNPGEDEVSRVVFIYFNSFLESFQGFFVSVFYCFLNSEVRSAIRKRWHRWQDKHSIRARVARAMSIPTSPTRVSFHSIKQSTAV
Assay: CRF1 receptor radioligand binding assay ([125I]-oCRF competition, IMR-32 cell membranes)
Conditions: IMR-32 cell membranes, [125I]-oCRF 100 pM; read-out: Ki (CRF-1R)
In short: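 Buffer: Tris pH 7.2 with MgCl2, BSA, Triton X-100, aprotinin, leupeptin; reaction stopped with ice-cold wash and filtered. Nonspecific binding set with 10 μM oCRF.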

## CCCN(CCc1ccccc1)Cc1c(C(F)(F)F)nc2n1CCCN2c1c(C)cc(C)cc1C [Example 83, Phenethyl-propyl-[2-trifluoromethyl-8-(2,4,6-trimethyl-phenyl)-5,6,7,8-tetrahydro-imidazo[1,2-a]pyrimidin-3-ylmethyl]-amine]
  Ki: < 0.1 µM

## CCN(CCc1ccccc1)Cc1c(C(F)(F)F)nc2n1CCCN2c1c(C)cc(C)cc1C [Example 84, Ethyl-phenethyl-[2-trifluoromethyl-8-(2,4,6-trimethyl-phenyl)-5,6,7,8-tetrahydro-imidazo[1,2-a]pyrimidin-3-ylmethyl]-amine]
  Ki: < 1 µM

## Cc1cc(C)c(N2CCCn3c2nc(C(F)(F)F)c3CN(Cc2ccccc2)CC(F)(F)F)c(C)c1 [Example 85, Benzyl-(2,2,2-trifluoro-ethyl)-[2-trifluoromethyl-8-(2,4,6-trimethyl-phenyl)-5,6,7,8-tetrahydro-imidazo[1,2-a]pyrimidin-3-ylmethyl]-amine]
  Ki: < 10 µM

## Cc1cc(C)c(N2CCCn3c2nc(C(F)(F)F)c3CN(CCC(F)(F)F)Cc2ccccc2)c(C)c1 [Example 86, Benzyl-[2-trifluoromethyl-8-(2,4,6-trimethyl-phenyl)-5,6,7,8-tetrahydro-imidazo[1,2-a]pyrimidin-3-ylmethyl]-(3,3,3-trifluoro-propyl)-amine]
  Ki: < 1 µM

## CCCN(CCC1CC1)Cc1c(C(F)(F)F)nc2n1CCCN2c1c(C)cc(C)cc1C [Example 87, (2-Cyclopropyl-ethyl)-propyl-[2-trifluoromethyl-8-(2,4,6-trimethyl-phenyl)-5,6,7,8-tetrahydro-imidazo[1,2-a]pyrimidin-3-ylmethyl]-amine]
  Ki: < 1 µM

## CCN(CCC1CC1)Cc1c(C(F)(F)F)nc2n1CCCN2c1c(C)cc(C)cc1C [Example 88, (2-Cyclopropyl-ethyl)-ethyl-[2-trifluoromethyl-8-(2,4,6-trimethyl-phenyl)-5,6,7,8-tetrahydro-imidazo[1,2-a]pyrimidin-3-ylmethyl]-amine]
  Ki: < 1 µM

## Cc1cc(C)c(N2CCCn3c2nc(C(F)(F)F)c3CN(CCC2CC2)CCC(F)(F)F)c(C)c1 [Example 89, (2-Cyclopropyl-ethyl)-[2-trifluoromethyl-8-(2,4,6-trimethyl-phenyl)-5,6,7,8-tetrahydro-imidazo[1,2-a]pyrimidin-3-ylmethyl]-(3,3,3-trifluoro-propyl)-amine]
  Ki: < 1 µM

## Cc1cc(C)c(N2CCCn3c2nc(C(F)(F)F)c3CN(CCC2CC2)CC(F)(F)F)c(C)c1 [Example 90, (2-Cyclopropyl-ethyl)-(2,2,2-trifluoro-ethyl)-[2-trifluoromethyl-8-(2,4,6-trimethyl-phenyl)-5,6,7,8-tetrahydro-imidazo[1,2-a]pyrimidin-3-ylmethyl]-amine]
  Ki: < 1 µM

## Cc1cc(C)c(N2CCCn3c2nc(C(F)(F)F)c3CN(CCC(F)(F)F)Cc2ccc(F)cc2)c(C)c1 [Example 91, (4-Fluoro-benzyl)-[2-trifluoromethyl-8-(2,4,6-trimethyl-phenyl)-5,6,7,8-tetrahydro-imidazo[1,2-a]pyrimidin-3-ylmethyl]-(3,3,3-trifluoro-propyl)-amine]
  Ki: < 1 µM

## CCCN(Cc1ccc(F)cc1)Cc1c(C(F)(F)F)nc2n1CCCN2c1c(C)cc(C)cc1C [Example 92, (4-Fluoro-benzyl)-propyl-[2-trifluoromethyl-8-(2,4,6-trimethyl-phenyl)-5,6,7,8-tetrahydro-imidazo[1,2-a]pyrimidin-3-ylmethyl]-amine]
  Ki: < 1 µM

## Cc1cc(C)c(N2CCCn3c2nc(C(F)(F)F)c3CN(CCC(F)(F)F)Cc2ccc(Cl)cc2)c(C)c1 [Example 93, (4-Chloro-benzyl)-[2-trifluoromethyl-8-(2,4,6-trimethyl-phenyl)-5,6,7,8-tetrahydro-imidazo[1,2-a]pyrimidin-3-ylmethyl]-(3,3,3-trifluoro-propyl)-amine]
  Ki: < 0.1 µM

## CCCN(Cc1ccc(Cl)cc1)Cc1c(C(F)(F)F)nc2n1CCCN2c1c(C)cc(C)cc1C [Example 94, (4-Chloro-benzyl)-propyl-[2-trifluoromethyl-8-(2,4,6-trimethyl-phenyl)-5,6,7,8-tetrahydro-imidazo[1,2-a]pyrimidin-3-ylmethyl]-amine]
  Ki: < 1 µM
